The text below walks through data of US20230051589A1, “COMPOUNDS AND COMPOSITIONS FOR TREATING CONDITIONS ASSOCIATED WITH NLRP ACTIVITY” (Novartis AG, priority 2018, published 2023).

For one assay, the system named is IL-1β production in PMA-differentiated THP-1 cells. Put plainly: IL-1β production in PMA-differentiated THP-1 cells stimulated with gramicidin (hTHP-1 assay, 2% fetal bovine serum; Procedures 1-3). The assay is classed as cell-based, human. The conditions noted are these: Homo sapiens, THP-1, hTHP-1 assay containing 2% fetal bovine serum, Table B2, class symbols; read-out: IC50. The essentials: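 IL-1β released into supernatants was read by HTRF after 2 h gramicidin (5 μM) challenge. Before challenge, compounds (3-fold dilutions, top 100 μM, 0.37% DMSO) were given 1 h on THP-1 cells differentiated with PMA (20 ng/ml, 16-18 h) and held in 2% FBS medium.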
What is called IC50 is the concentration needed to halve the response being measured. For `NS(=O)(=NC(=O)Nc1c2c(cc3c1CCC3)CCC2)c1cccc(CN2CCOCC2)c1` (single isomer, unassigned) [Example 550, (R) or (S)-N′-((1,2,3,5,6,7-hexahydro-s-indacen-4-yl)carbamoyl)-3-(morpholinomethyl) benzenesulfonimidamide], the IC50 was in the range of 1000 to 5000 nM.

Turning to `CC(C)(O)c1ncc(S(N)(=O)=NC(=O)Nc2cc3c(c4c2CCC4=O)CCC3)s1` (single isomer, unassigned) [Example 565, (R) or (S)-2-(2-hydroxypropan-2-yl)-N′-((1-oxo-1,2,3,6,7,8-hexahydro-as-indacen-4-yl)carbamoyl) thiazole-5-sulfonimidamide], the IC50 fell in the range of 5000 to 30000 nM.

Still in this assay, the particulars now being: Homo sapiens, THP-1, hTHP-1 assay containing 2% fetal bovine serum, Table B2, given as bound; read-out: IC50.
`NS(=O)(=NC(=O)Nc1c2c(cc3c1CCC3)CCC2)c1cccc(CN2CCOCC2)c1` (single isomer, unassigned) [Example 551, (S) or (R)-N′-((1,2,3,5,6,7-hexahydro-s-indacen-4-yl)carbamoyl)-3-(morpholinomethyl) benzenesulfonimidamide]: the IC50 was more than 30000 nM.

For `CC(C)(O)c1ncc(S(N)(=O)=NC(=O)Nc2cc3c(c4c2CCC4=O)CCC3)s1` (single isomer, unassigned) [Example 564, (S) or (R)-2-(2-hydroxypropan-2-yl)-N′-((1-oxo-1,2,3,6,7,8-hexahydro-as-indacen-4-yl)carbamoyl) thiazole-5-sulfonimidamide], the IC50 was more than 30000 nM.

Still in this assay, the particulars now being: hTHP-1 assay containing 2% fetal bovine serum, Table B2, class symbols; read-out: IC50.
`CC(C)(O)c1cc(S(N)(=O)=NC(=O)Nc2c3c(cc4c2CCC4)CCC3)sc1-c1ccccc1` (single isomer, unassigned) [Example 552, (R) or (S)-N′-((1,2,3,5,6,7-hexahydro-s-indacen-4-yl)(2-4-carbamoyl)-hydroxypropan-2-yl)-5-phenylthiophene-2-sulfonimidamide]: the IC50 is 40 to 200 nM.

On to `CC(C)(O)c1cc(S(N)(=O)=NC(=O)Nc2c3c(cc4c2CCC4)CCC3)sc1-c1ccccc1` (single isomer, unassigned) [Example 553, (S) or (R)-N′-((1,2,3,5,6,7-hexahydro-s-indacen-4-yl)carbamoyl)-(4-2-hydroxypropan-2-yl)-5-phenylthiophene-2-sulfonimidamide], for which the IC50 is 5000 to 30000 nM.

Turning to `CC(C)c1cc(S(N)(=O)=NC(=O)Nc2c3c(cc4c2CCC4)CCC3)c(F)cn1` (single isomer, unassigned) [Example 554, (S) or (R)-5-fluoro-N′-((1,2,3,5,6,7-hexahydro-s-indacen-4-yl)carbamoyl)-2-isopropylpyridine-4-sulfonimidamide], the IC50 was 5000 to 30000 nM.

As to `CC(C)c1cc(S(N)(=O)=NC(=O)Nc2c3c(cc4c2CCC4)CCC3)c(F)cn1` (single isomer, unassigned) [Example 555, (R) or (S)-5-fluoro-N′-((1,2,3,5,6,7-hexahydro-s-indacen-4-yl)carbamoyl)-2-isopropylpyridine-4-sulfonimidamide], the IC50 was 200 to 1000 nM.

Consider `CC(C)(O)c1nc(S(N)(=O)=NC(=O)Nc2c3c(cc4c2CCC4)CCC3)cs1` (single isomer, unassigned) [Example 556, (S) or (R)-N′-((1,2,3,5,6,7-hexahydro-s-indacen-4-yl)carbamoyl)-2-(2-hydroxypropan-2-yl)thiazole-4-sulfonimidamide], for which the IC50 was 5000 to 30000 nM.

Take `CC(C)(O)c1nc(S(N)(=O)=NC(=O)Nc2c3c(cc4c2CCC4)CCC3)cs1` (single isomer, unassigned) [Example 557, (R) or (S)-N′-((1,2,3,5,6,7-hexahydro-s-indacen-4-yl)cartoamoyl)-2-(2-hydroxypropan-2-yl)thiazole-4-sulfoni midamide]: the IC50 lay in the range of 40 to 200 nM.

`CN1CCc2cc(S(N)(=O)=NC(=O)Nc3c4c(cc5c3CCC5)CCC4)sc2C1` (single isomer, unassigned) [Example 558, (R) or (S)-N′-((1,2,3,5,6,7-hexahydro-5-indacen-4-yl)carbamoyl)-6-methyl-4,5,6,7-tetrahydrothieno [2,3-c]pyridine-2-sulfonimidamide]: the IC50 is 40 to 200 nM.

`CN1CCc2cc(S(N)(=O)=NC(=O)Nc3c4c(cc5c3CCC5)CCC4)sc2C1` (single isomer, unassigned) [Example 559, (S) or (R)-N′-((1,2,3,5,6,7-hexahydro-s-indacen-4-yl)carbamoyl)-6-methyl-4,5,6,7-tetrahydrothieno[2,3-c]pyridine-2-sulfonimidamide]: the 50% inhibitory concentration (IC50) was 1000 to 5000 nM.

On to `CC(C)(O)c1csc(S(N)(=O)=NC(=O)Nc2c3c(cc4c2CC4)CCC3)c1` (single isomer, unassigned) [Example 560, (R) or (S)-4-(2-hydroxypropan-2-N′-((2,4,5,6-tetrahydro-1H-cyclobuta[f]inden-3 - y])carbamoyl) thiophene-2-sulfonimidamide], for which the IC50 fell in the range of 8 to 40 nM.

In the case of `CC(C)(O)c1csc(S(N)(=O)=NC(=O)Nc2c3c(cc4c2CC4)CCC3)c1` (single isomer, unassigned) [Example 561, (S) or (R)-4-(2-hydroxypropan-2-N′-((2,4,5,6-tetrahydro-1H-cyclobuta[f]inden-3 - y])carbamoyl) thiophene-2-sulfonimidamide], the IC50 was 200 to 1000 nM.

As to `Cc1c(C2CC2)cc2c(c1NC(=O)N=S(N)(=O)c1cnc(C(C)(C)O)s1)CCC2` (single isomer, unassigned) [Example 562, (S) or (R)-N′-((6-cyclopropyl-5-methyl-2,3-dihydro-1H-inden-4-yl)carbamoyl)-2-(2-hydroxypropan-2-yl)thiazole-5-sulfonimidamide], the IC50 lay in the range of 1000 to 5000 nM.

`Cc1c(C2CC2)cc2c(c1NC(=O)N=S(N)(=O)c1cnc(C(C)(C)O)s1)CCC2` (single isomer, unassigned) [Example 563, (R) or (S)-N′-((6-cyclopropyl-5-methyl-2,3-dihydro-1H-inden-4-yl)carbamoyl)-2-(2-hydroxypropan-2-yl)thiazole-5-sulfonimidamide]: the IC50 was 40 to 200 nM.

Turning to `C=CCc1c2c(c(NC(=O)N=S(N)(=O)c3cc(C(C)(C)O)n(-c4ccccc4)n3)c3c1CCC3)CCC2` (single isomer, unassigned) [Example 566, (R) or (S)-N′-((8-allyl-1,2,3,5,6,7-hexahydro-s-indacen-4-yl)carbamoyl)-5-(2-hydroxypropan-2-yl)-1-phenyl-1H-pyrazole-3-sulfonimidaimde], the 50% inhibitory concentration (IC50) was 1000 to 5000 nM.

For the molecule `C=CCc1c2c(c(NC(=O)N=S(N)(=O)c3cc(C(C)(C)O)n(-c4ccccc4)n3)c3c1CCC3)CCC2` (single isomer, unassigned) [Example 567, (S) or (R)-N′-((8-allyl-1,2,3,5,6,7-hexahydro-s-indacen-4-yl)carbamoyl)-5-(2-hydroxypropan-2-yl)-1-phenyl-1H-pyrazole-3-sulfonimidaimde], the IC50 lay in the range of 5000 to 30000 nM.

Turning to `NS(=O)(=NC(=O)Nc1c2c(cc3c1CCC3)CCC2)c1cnn2c1OCCC2` (single isomer, unassigned) [Example 568, (S) or (R)-N′-((1,2,3,5,6,7-hexahydro-s-indacen-4-yl)carbamoyl)-6,7-dihydro-5H-pyrazolo[5,1-b][1,3]oxazine-3-sulfonimidamide], the IC50 lay within 5000 to 30000 nM.

For the molecule `NS(=O)(=NC(=O)Nc1c2c(cc3c1CCC3)CCC2)c1cnn2c1OCCC2` (single isomer, unassigned) [Example 569, (R) or (S)-N′-((1,2,3,5,6,7-hexahydro-s-indacen-4-yl)caramoyl)-6,7-dihydro-5H-pyrazolo[5,1 - b][1,3]oxazine-3-sulfonimidamide], the IC50 was 40 to 200 nM.

With `CNCc1cc(F)c(S(N)(=O)=NC(=O)Nc2c3c(cc4c2CCC4)CCC3)s1` (single isomer, unassigned) [Example 570, (R) or (S)-3-fluoro-N′-((1,2,3,5,6,7-hcxahydro-s-indacen-4-yl)carbamoyl)-5-((methylamino)methyl) thiophene-2-sulfonimidamide], the IC50 was 8 to 40 nM.

On to `CNCc1cc(F)c(S(N)(=O)=NC(=O)Nc2c3c(cc4c2CCC4)CCC3)s1` (single isomer, unassigned) [Example 571, (S) or (R)-3-fluoro-N′-((1,2,3,5,6,7-hcxahydro-s-indacen-4-yl)carbamoyl)-5-((methylamino)methyl) thiophene-2-sulfonimidamide], for which the IC50 is 200 to 1000 nM.

Regarding `CC(C)(O)c1cnc(S(N)(=O)=NC(=O)Nc2c3c(cc4c2C(=O)CC4)CCC3)s1` (single isomer, unassigned) [Example 572, (R) or (S)-5-(2-hydroxypiopan-2-yl)-N′-((3-oxo-1,2,3,5,6,7-hexahydro-s-indacen-4-yl)carbamoyl)thiazole-2-sulfonimidamide], the IC50 lay in the range of 200 to 1000 nM.

As to `CC(C)(O)c1cnc(S(N)(=O)=NC(=O)Nc2c3c(cc4c2C(=O)CC4)CCC3)s1` (single isomer, unassigned) [Example 573, (S) or (R)-5-(2-hydroxypiopan-2-yl)-N′-((3-oxo-1,2,3,5,6,7-hexahydro-s-indacen-4-yl)carbamoyl)thiazole-2-sulfonimidamide], the IC50 was in the range of 5000 to 30000 nM.

As to `CC(C)(O)c1cc(S(N)(=O)=NC(=O)Nc2c3c(c(C#N)c4c2CCC4)CCC3)nn1-c1ccccc1` (single isomer, unassigned) [Example 574, (S) or (R)-N′-((8-cyano-1,2,3,5,6,7-hexahydro-s-indacen-4-yl)carbamoyl)-5-(2-hydroxypropan-2-yl)-1-pheny-1H-pyrazole-3-sulfonimidamide], the IC50 is 5000 to 30000 nM.

With `CC(C)(O)c1cc(S(N)(=O)=NC(=O)Nc2c3c(c(C#N)c4c2CCC4)CCC3)nn1-c1ccccc1` (single isomer, unassigned) [Example 575, (R) or (S)-N′-((8-cyano-1,2,3,5,6,7-hexahydro-s-indacen-4-yl)carbamoyl)-5-(2-hydroxypropan-2-yl)-1-pheny-1H-pyrazole-3-sulfonimidamide], the IC50 lay in the range of 200 to 1000 nM.
